# Measured values reported in US11370770B2, “3-arylindazoles as selective MEK4 inhibitors” (priority 2019, dated 2022).
# Assays:
# [1] = molecular target: MRCKA (Homo sapiens (Human), UniProt Q5VT25); experiment: KINOMEscan binding assay; details: percent of control
# [2] = molecular target: AAK1 (Homo sapiens (Human), UniProt Q2M2I8); experiment: KINOMEscan binding assay; details: percent of control
# [3] = molecular target: ABL1(T3151)-phosphorylated (Homo sapiens (Human), UniProt P00519, T315I); experiment: KINOMEscan binding assay; details: percent of control
# [4] = molecular target: IKK-ALPHA (Homo sapiens (Human), UniProt O15111); experiment: KINOMEscan binding assay; details: percent of control
# [5] = molecular target: (Homo sapiens (Human), UniProt P49761); experiment: KINOMEscan binding assay; details: C;L3; percent of control
# [6] = molecular target: DMPK (Homo sapiens (Human), UniProt Q09013); experiment: KINOMEscan binding assay; details: percent of control
# Chain of DMPK (Q09013 whole entry): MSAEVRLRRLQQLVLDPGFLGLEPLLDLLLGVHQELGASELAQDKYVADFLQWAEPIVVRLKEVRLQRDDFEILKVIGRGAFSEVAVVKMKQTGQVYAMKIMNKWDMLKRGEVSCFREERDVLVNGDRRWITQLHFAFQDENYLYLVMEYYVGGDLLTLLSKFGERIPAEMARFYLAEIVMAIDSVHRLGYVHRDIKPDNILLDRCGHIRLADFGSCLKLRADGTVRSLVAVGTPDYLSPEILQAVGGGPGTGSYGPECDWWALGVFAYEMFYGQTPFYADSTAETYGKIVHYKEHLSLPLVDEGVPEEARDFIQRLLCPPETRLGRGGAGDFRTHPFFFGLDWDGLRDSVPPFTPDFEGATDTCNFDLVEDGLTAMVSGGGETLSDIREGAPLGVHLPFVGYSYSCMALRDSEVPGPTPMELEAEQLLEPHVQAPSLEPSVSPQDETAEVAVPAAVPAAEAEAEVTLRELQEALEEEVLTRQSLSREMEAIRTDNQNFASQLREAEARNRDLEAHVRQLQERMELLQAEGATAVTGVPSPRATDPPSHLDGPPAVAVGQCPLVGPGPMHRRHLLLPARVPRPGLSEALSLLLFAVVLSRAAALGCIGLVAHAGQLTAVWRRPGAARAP
# [7] = molecular target: HIPK1 (Homo sapiens (Human), UniProt Q86Z02); experiment: KINOMEscan binding assay; details: percent of control
# [8] = molecular target: SIK2 (Homo sapiens (Human), UniProt Q9H0K1); experiment: KINOMEscan binding assay; details: percent of control
# [9] = molecular target: (Homo sapiens (Human), UniProt P49674); experiment: KINOMEscan binding assay; details: CSML1E; percent of control
# [10] = molecular target: PHKG2 (Homo sapiens (Human), UniProt P15735); experiment: KINOMEscan binding assay; details: percent of control
# [11] = molecular target: NLK (Homo sapiens (Human), UniProt Q9UBE8); experiment: KINOMEscan binding assay; details: percent of control
# [12] = molecular target: EPHA6 (Homo sapiens (Human), UniProt Q9UF33); experiment: KINOMEscan binding assay; details: percent of control
# [13] = molecular target: IKK-EPSILON (Homo sapiens (Human), UniProt Q14164); experiment: KINOMEscan binding assay; details: percent of control
# [14] = molecular target: TNIK (Homo sapiens (Human), UniProt Q9UKE5); experiment: KINOMEscan binding assay; details: percent of control
# Chain of TNIK (Q9UKE5 whole entry): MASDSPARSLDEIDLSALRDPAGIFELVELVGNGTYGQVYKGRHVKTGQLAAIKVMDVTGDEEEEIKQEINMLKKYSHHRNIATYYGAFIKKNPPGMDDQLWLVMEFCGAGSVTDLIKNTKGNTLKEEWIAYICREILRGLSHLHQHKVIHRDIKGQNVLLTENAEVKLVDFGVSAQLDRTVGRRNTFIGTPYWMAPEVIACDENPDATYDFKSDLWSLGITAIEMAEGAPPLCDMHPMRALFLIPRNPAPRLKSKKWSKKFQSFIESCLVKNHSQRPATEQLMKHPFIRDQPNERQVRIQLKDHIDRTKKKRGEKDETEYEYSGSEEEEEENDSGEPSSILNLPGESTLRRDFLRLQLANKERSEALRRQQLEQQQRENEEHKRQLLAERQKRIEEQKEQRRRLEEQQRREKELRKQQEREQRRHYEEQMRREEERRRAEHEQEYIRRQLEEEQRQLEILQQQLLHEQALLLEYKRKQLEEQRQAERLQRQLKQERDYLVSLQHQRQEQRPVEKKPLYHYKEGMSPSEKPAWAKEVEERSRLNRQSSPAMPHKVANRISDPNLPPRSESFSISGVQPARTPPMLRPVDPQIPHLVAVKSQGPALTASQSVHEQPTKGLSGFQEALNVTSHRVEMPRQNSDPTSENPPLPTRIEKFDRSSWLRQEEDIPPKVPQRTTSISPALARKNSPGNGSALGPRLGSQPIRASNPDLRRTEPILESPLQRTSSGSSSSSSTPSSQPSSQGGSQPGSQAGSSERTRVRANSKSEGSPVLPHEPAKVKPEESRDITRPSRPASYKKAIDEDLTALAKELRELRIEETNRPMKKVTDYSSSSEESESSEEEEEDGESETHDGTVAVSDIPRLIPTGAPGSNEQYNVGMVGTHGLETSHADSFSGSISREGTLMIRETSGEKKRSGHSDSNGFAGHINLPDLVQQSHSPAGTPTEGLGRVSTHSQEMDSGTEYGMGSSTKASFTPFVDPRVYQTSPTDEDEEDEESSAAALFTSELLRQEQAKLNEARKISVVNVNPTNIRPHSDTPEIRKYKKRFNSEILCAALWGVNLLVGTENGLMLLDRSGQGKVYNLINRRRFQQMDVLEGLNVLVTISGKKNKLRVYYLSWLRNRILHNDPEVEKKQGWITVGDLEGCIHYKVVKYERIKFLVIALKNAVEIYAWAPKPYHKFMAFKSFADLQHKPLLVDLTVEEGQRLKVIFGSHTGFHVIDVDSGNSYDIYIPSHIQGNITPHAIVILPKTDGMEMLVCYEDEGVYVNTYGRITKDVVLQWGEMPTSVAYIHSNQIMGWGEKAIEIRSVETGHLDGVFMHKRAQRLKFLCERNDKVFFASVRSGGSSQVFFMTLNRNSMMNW
# [15] = molecular target: SNARK (Homo sapiens (Human), UniProt Q9H093); experiment: KINOMEscan binding assay; details: percent of control
# [16] = molecular target: T1, MEK6 (Homo sapiens (Human), UniProt P52564); experiment: MEK family profiling ADP-Glo, MEK6; assay type: biochemical; details: p38α substrate; 0.6 μM ATP; read-out: IC50 MEK isoform 6
# T1 sequence (P52564 whole entry, canonical isoform): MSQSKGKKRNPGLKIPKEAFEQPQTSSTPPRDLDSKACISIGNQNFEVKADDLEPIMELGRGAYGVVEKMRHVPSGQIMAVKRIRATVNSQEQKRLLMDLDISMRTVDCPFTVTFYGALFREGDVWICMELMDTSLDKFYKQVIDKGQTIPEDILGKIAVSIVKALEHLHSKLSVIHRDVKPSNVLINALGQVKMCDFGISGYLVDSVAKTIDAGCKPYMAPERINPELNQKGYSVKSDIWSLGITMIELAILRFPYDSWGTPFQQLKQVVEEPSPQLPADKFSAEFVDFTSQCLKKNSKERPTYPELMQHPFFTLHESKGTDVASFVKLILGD
# [17] = molecular target: MEK3 (Homo sapiens (Human), UniProt P46734); experiment: KINOMEscan binding assay; details: percent of control
# [18] = molecular target: PRKG1 (Homo sapiens (Human), UniProt Q13976); experiment: KINOMEscan binding assay; details: percent of control
# Chain of PRKG1 (Q13976 whole entry): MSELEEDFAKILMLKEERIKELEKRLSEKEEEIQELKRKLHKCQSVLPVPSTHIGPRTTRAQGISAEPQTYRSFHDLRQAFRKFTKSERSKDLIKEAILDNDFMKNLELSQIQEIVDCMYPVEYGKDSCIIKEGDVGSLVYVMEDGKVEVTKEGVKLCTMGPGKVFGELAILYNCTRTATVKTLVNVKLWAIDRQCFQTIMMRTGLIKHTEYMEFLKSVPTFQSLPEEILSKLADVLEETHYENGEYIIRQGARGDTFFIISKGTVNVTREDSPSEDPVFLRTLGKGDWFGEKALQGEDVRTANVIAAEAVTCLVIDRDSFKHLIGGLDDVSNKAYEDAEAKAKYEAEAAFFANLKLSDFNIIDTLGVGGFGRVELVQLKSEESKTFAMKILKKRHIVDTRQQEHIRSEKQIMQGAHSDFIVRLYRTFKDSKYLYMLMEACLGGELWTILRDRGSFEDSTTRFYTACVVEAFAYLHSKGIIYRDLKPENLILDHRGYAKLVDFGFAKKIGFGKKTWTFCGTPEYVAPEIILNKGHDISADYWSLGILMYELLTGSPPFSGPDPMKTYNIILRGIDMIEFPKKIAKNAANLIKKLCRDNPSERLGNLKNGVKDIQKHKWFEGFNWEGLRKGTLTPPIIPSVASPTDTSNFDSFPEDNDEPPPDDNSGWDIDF
# [19] = system: PRP6; experiment: KINOMEscan binding assay; details: percent of control
# [20] = molecular target: T2, MEK2 (Homo sapiens (Human), UniProt P36507); experiment: KINOMEscan binding assay; details: percent of control
# T2 sequence (P36507 whole entry, canonical isoform): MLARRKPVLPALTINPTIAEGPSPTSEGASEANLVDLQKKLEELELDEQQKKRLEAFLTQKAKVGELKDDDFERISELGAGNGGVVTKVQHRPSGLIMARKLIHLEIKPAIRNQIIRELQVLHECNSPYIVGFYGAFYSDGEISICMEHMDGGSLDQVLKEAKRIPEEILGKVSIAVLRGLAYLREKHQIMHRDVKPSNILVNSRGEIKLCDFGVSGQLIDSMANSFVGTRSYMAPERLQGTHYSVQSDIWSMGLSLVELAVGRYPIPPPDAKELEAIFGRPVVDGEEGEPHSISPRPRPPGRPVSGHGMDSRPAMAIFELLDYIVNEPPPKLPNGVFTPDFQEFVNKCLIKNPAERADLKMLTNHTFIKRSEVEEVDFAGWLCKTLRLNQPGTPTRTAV
# [21] = molecular target: MEK1 (Homo sapiens (Human), UniProt Q02750); experiment: MEK family profiling ADP-Glo, MEK1; assay type: biochemical; details: Erk2 substrate; 0.6 μM ATP; read-out: IC50 MEK isoform 1
# [22] = molecular target: VEGFR2 (Homo sapiens (Human), UniProt P35968); experiment: KINOMEscan binding assay; details: percent of control
# [23] = molecular target: ABL2 (Homo sapiens (Human), UniProt P42684); experiment: KINOMEscan binding assay; details: percent of control
# Chain of ABL2 (P42684 whole entry): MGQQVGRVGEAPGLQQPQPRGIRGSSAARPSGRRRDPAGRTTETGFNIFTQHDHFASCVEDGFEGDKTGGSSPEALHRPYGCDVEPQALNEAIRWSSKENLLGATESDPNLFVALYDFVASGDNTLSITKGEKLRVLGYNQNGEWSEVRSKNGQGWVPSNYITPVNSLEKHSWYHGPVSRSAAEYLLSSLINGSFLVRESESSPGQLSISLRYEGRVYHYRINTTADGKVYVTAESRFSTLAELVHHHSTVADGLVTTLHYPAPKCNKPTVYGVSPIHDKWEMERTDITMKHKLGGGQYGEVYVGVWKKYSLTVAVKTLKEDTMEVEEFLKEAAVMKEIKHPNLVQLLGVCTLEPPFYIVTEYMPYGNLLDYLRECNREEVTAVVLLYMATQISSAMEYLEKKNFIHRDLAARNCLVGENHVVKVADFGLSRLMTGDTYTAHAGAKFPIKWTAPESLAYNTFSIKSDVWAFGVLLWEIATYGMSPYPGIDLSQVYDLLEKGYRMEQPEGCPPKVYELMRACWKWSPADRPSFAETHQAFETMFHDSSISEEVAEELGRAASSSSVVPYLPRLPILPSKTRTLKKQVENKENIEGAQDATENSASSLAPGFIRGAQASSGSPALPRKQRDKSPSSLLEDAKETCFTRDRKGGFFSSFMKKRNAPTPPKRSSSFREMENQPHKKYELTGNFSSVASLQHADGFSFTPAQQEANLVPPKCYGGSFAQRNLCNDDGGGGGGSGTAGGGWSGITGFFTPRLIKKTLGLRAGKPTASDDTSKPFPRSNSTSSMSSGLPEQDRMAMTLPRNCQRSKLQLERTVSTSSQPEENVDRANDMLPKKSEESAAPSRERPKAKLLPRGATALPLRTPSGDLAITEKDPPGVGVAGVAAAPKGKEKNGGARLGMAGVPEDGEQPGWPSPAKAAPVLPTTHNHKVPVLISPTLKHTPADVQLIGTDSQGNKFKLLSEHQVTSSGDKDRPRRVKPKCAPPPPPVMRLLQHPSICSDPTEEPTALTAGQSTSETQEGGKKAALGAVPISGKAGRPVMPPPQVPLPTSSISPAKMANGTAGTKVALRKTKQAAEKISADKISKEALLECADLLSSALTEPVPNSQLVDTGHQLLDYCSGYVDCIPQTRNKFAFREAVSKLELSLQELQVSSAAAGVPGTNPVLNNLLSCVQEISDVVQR
# [24] = molecular target: EPHA2 (Homo sapiens (Human), UniProt P29317); experiment: KINOMEscan binding assay; details: percent of control
# [25] = molecular target: RAF1 (Homo sapiens (Human), UniProt P04049); experiment: KINOMEscan binding assay; details: percent of control
# [26] = molecular target: T2, MEK2; experiment: MEK family profiling ADP-Glo, MEK2; assay type: biochemical; details: Erk2 substrate; 0.6 μM ATP; read-out: IC50 MEK isoform 2
# [27] = molecular target: TEC (Homo sapiens (Human), UniProt P42680); experiment: KINOMEscan binding assay; details: percent of control
# [28] = molecular target: CAMK4 (Homo sapiens (Human), UniProt Q16566); experiment: KINOMEscan binding assay; details: percent of control
# [29] = molecular target: CDK2 (Homo sapiens (Human), UniProt P24941); experiment: KINOMEscan binding assay; details: percent of control
# [30] = molecular target: T1, MEK6; experiment: KINOMEscan binding assay; details: percent of control
# [31] = molecular target: MAP3K4 (Homo sapiens (Human), UniProt Q9Y6R4); experiment: KINOMEscan binding assay; details: percent of control
# [32] = system: panel of 57 kinases; details: 10 μM; S(35) criterion
# [33] = molecular target: ALK(L1196M) (Homo sapiens (Human), UniProt Q9UM73, L1196M); experiment: KINOMEscan binding assay; details: percent of control
# [34] = molecular target: MARK4 (Homo sapiens (Human), UniProt Q96L34); experiment: KINOMEscan binding assay; details: percent of control
# [35] = molecular target: PKN2 (Homo sapiens (Human), UniProt Q16513); experiment: KINOMEscan binding assay; details: percent of control
# [36] = molecular target: ABL1(T3151)-non-phosphorylated (Homo sapiens (Human), UniProt P00519, T315I); experiment: KINOMEscan binding assay; details: percent of control
# [37] = molecular target: PCTK3 (Homo sapiens (Human), UniProt Q07002); experiment: KINOMEscan binding assay; details: percent of control
# [38] = molecular target: MEK5 (Homo sapiens (Human), UniProt Q13163); experiment: KINOMEscan binding assay; details: percent of control
# [39] = molecular target: FGFR1 (Homo sapiens (Human), UniProt P11362); experiment: KINOMEscan binding assay; details: percent of control
# [40] = molecular target: MKNK2 (Homo sapiens (Human), UniProt Q9HBH9); experiment: KINOMEscan binding assay; details: percent of control
# Chain of MKNK2 (Q9HBH9 whole entry): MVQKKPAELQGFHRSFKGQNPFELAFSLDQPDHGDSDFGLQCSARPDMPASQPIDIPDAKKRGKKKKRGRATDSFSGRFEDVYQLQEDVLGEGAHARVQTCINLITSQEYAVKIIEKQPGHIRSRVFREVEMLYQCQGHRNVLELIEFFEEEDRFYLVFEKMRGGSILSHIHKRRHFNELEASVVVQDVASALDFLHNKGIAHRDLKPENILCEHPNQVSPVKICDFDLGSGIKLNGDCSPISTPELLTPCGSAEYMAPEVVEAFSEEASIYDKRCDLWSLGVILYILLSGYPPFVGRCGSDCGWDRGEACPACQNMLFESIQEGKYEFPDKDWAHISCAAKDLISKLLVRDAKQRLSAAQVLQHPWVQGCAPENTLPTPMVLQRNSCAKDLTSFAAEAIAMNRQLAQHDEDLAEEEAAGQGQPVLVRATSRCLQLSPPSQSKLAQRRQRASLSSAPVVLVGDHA
# [41] = molecular target: PIK4CB (Homo sapiens (Human), UniProt Q9UBF8); experiment: KINOMEscan binding assay; details: percent of control
smiles,measurement,setting,value
"O=C(O)c1ccc(-c2n[nH]c3cc(F)ccc23)cc1 [Compound 6ff, 4-(6-fluoro-2H-indazol-3-yl)benzoic Acid]",% Ctrl @ 10000 nM,[1],89 % Ctrl
same,% Ctrl @ 10000 nM,[2],55 % Ctrl
same,% Ctrl @ 10000 nM,[3],12 % Ctrl
same,% Ctrl @ 10000 nM,[4],14 % Ctrl
same,% Ctrl @ 10000 nM,[5],100 % Ctrl
same,% Ctrl @ 10000 nM,[6],100 % Ctrl
same,% Ctrl @ 10000 nM,[7],48 % Ctrl
same,% Ctrl @ 10000 nM,[8],100 % Ctrl
same,% Ctrl @ 10000 nM,[9],100 % Ctrl
same,% Ctrl @ 10000 nM,[10],89 % Ctrl
same,% Ctrl @ 10000 nM,[11],99 % Ctrl
same,% Ctrl @ 10000 nM,[12],99 % Ctrl
same,% Ctrl @ 10000 nM,[13],43 % Ctrl
same,% Ctrl @ 10000 nM,[14],3.6 % Ctrl
same,% Ctrl @ 10000 nM,[15],53 % Ctrl
same,IC50,[16],11 µM
same,% Ctrl @ 10000 nM,[17],1.6 % Ctrl
same,% Ctrl @ 10000 nM,[18],100 % Ctrl
same,% Ctrl @ 10000 nM,[19],52 % Ctrl
same,% Ctrl @ 10000 nM,[20],61 % Ctrl
same,IC50,[21],15 µM
same,% Ctrl @ 10000 nM,[22],3.5 % Ctrl
same,% Ctrl @ 10000 nM,[23],100 % Ctrl
same,% Ctrl @ 10000 nM,[24],100 % Ctrl
same,% Ctrl @ 10000 nM,[25],100 % Ctrl
same,IC50,[26],> 27 µM
same,% Ctrl @ 10000 nM,[27],100 % Ctrl
same,% Ctrl @ 10000 nM,[28],100 % Ctrl
same,% Ctrl @ 10000 nM,[29],100 % Ctrl
same,% Ctrl @ 10000 nM,[30],78 % Ctrl
same,% Ctrl @ 10000 nM,[31],100 % Ctrl
same,"number of kinases hit, out of 57 tested",[32],12
same,% Ctrl @ 10000 nM,[33],61 % Ctrl
same,% Ctrl @ 10000 nM,[34],86 % Ctrl
same,% Ctrl @ 10000 nM,[35],95 % Ctrl
same,% Ctrl @ 10000 nM,[36],15 % Ctrl
same,% Ctrl @ 10000 nM,[37],100 % Ctrl
same,% Ctrl @ 10000 nM,[38],44 % Ctrl
same,% Ctrl @ 10000 nM,[39],99 % Ctrl
same,% Ctrl @ 10000 nM,[40],43 % Ctrl
same,% Ctrl @ 10000 nM,[41],28 % Ctrl
"O=C(O)c1cccc(-c2n[nH]c3ccccc23)c1 [Compound 6a, 3-(1H-indazol-3-yl)benzoic Acid]",% Ctrl @ 10000 nM,[1],95 % Ctrl
same,% Ctrl @ 10000 nM,[2],87 % Ctrl
same,% Ctrl @ 10000 nM,[3],40 % Ctrl
same,% Ctrl @ 10000 nM,[4],50 % Ctrl
same,% Ctrl @ 10000 nM,[5],94 % Ctrl
same,% Ctrl @ 10000 nM,[6],100 % Ctrl
same,% Ctrl @ 10000 nM,[7],43 % Ctrl
same,% Ctrl @ 10000 nM,[8],93 % Ctrl
same,% Ctrl @ 10000 nM,[9],88 % Ctrl
same,% Ctrl @ 10000 nM,[10],98 % Ctrl
same,% Ctrl @ 10000 nM,[11],97 % Ctrl
same,% Ctrl @ 10000 nM,[12],97 % Ctrl
same,% Ctrl @ 10000 nM,[13],48 % Ctrl
same,% Ctrl @ 10000 nM,[14],65 % Ctrl
same,% Ctrl @ 10000 nM,[15],68 % Ctrl
same,IC50,[16],10 µM
same,% Ctrl @ 10000 nM,[17],13 % Ctrl
same,% Ctrl @ 10000 nM,[18],100 % Ctrl
same,% Ctrl @ 10000 nM,[19],76 % Ctrl
same,% Ctrl @ 10000 nM,[20],60 % Ctrl
same,IC50,[21],12 µM
same,% Ctrl @ 10000 nM,[22],20 % Ctrl
same,% Ctrl @ 10000 nM,[23],100 % Ctrl
same,% Ctrl @ 10000 nM,[24],92 % Ctrl
same,% Ctrl @ 10000 nM,[25],100 % Ctrl
same,IC50,[26],> 27 µM
same,% Ctrl @ 10000 nM,[27],100 % Ctrl
same,% Ctrl @ 10000 nM,[28],100 % Ctrl
same,% Ctrl @ 10000 nM,[29],97 % Ctrl
same,% Ctrl @ 10000 nM,[30],91 % Ctrl
same,% Ctrl @ 10000 nM,[31],90 % Ctrl
same,"number of kinases hit, out of 57 tested",[32],5
same,% Ctrl @ 10000 nM,[33],59 % Ctrl
same,% Ctrl @ 10000 nM,[34],97 % Ctrl
same,% Ctrl @ 10000 nM,[35],100 % Ctrl
same,% Ctrl @ 10000 nM,[36],67 % Ctrl
same,% Ctrl @ 10000 nM,[37],100 % Ctrl
same,% Ctrl @ 10000 nM,[38],88 % Ctrl
same,% Ctrl @ 10000 nM,[39],100 % Ctrl
same,% Ctrl @ 10000 nM,[40],66 % Ctrl
same,% Ctrl @ 10000 nM,[41],0 % Ctrl
